For 25 molecules, IC50 results are on record in patent publication US20200079758A1, “[4-(PHENYLSULFONYL)PIPERAZIN-1-YL](1H-1,2,3-TRIAZOL-4-YL)METHANONES” (priority 2016, published 2020).

The structures appear in SMILES notation.

The target in the assay is T1, recombinant human AKR1C3 (Homo sapiens, UniProt P42330).
T1 construct: GST (cleaved yes); made in house; host or cells: E. coli
T1 sequence (P42330 1-323): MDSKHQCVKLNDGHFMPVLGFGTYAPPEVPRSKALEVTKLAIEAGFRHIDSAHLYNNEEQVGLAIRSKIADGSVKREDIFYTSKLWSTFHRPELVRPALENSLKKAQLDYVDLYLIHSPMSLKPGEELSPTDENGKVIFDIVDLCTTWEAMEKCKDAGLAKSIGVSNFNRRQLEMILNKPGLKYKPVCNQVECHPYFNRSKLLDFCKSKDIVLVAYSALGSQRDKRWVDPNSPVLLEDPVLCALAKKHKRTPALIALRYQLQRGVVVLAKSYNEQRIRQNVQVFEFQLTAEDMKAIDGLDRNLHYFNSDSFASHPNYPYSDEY
As to the kind of experiment: AKR1C3-inhibitory activity assay (generation of Coumberol from Coumberone). The conditions noted are these: Coumberone 0.3 μM, NADPH 10 μM, 22° C., typically 90 min, average or median values. It counts as biochemical. The gist of the method: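 Recombinant human AKR1C3 (E. coli GST fusion, GST removed; ~1 nM) preincubated 15 min with compound, then NADPH 10 μM and Coumberone 0.3 μM (final), 22 °C, typically 90 min, in 50 mM K-phosphate pH 7. Stopped with EM-1404 (1 μM final); Coumberol fluorescence read at 520 nm (ex 380 nm), normalized to no-inhibitor and no-enzyme controls.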
As for `COC(=O)c1cccc(S(=O)(=O)N2CCN(C(=O)c3cnn[nH]3)CC2(C)C)c1` [Example 131, methyl 3-{[2,2-dimethyl-4-(1H-1,2,3-triazol-5-ylcarbonyl)piperazin-1-yl]sulfonyl}benzoate], the IC50 was determined as 204 nM.

Turning to `COc1ccc(S(=O)(=O)N2C[C@H](C)N(C(=O)c3cnn[nH]3)C[C@H]2C)cc1` [Example 67, {(2S,5R)-4-[(4-methoxyphenyl)sulfonyl]-2,5-dimethylpiperazin-1-yl}(1H-1,2,3-triazol-5-yl)methanone], the IC50 is 7 nM.

For the molecule `C[C@@H]1CN(C(=O)c2cnn[nH]2)[C@@H](C)CN1S(=O)(=O)c1ccccc1S(C)(=O)=O` [Example 84, [(2S,5R)-2,5-dimethyl-4-{[2-(methylsulfonyl)phenyl]sulfonyl}piperazin-1-yl](1H-1,2,3-triazol-5-yl)methanone], the IC50 is 37 nM.

In the case of `Cc1cc(C)cc(S(=O)(=O)N2CCN(C(=O)c3c[nH]nn3)CC2(C)C)c1` [Example 22, {4-[(3,5-dimethylphenyl)sulfonyl]-3,3-dimethylpiperazin-1-yl}(1H-1,2,3-triazol-4-yl)methanone], the IC50 came to 2 nM.

Regarding `CC1(C)CN(C(=O)c2cnn[nH]2)CCN1S(=O)(=O)c1cccc2nonc12` [Example 122, [4-(2,1,3-benzoxadiazol-4-ylsulfonyl)-3,3-dimethylpiperazin-1-yl](1H-1,2,3-triazol-5-yl)methanone], the half-maximal inhibitory concentration (IC50) was found to be 35 nM.

In the case of `C[C@@H]1CN(C(=O)c2cnn[nH]2)[C@@H](C)CN1S(=O)(=O)c1cccc(S(C)(=O)=O)c1` [Example 81, [(2S,5R)-2,5-dimethyl-4-{[3-(methylsulfonyl)phenyl]sulfonyl}piperazin-1-yl](1H-1,2,3-triazol-5-yl)methanone], the IC50 was found to be 32 nM.

`C[C@@H]1CN(S(=O)(=O)c2ccc(F)cc2)C[C@H](C)N1C(=O)c1c[nH]nn1` [Example 44, {(2R,6S)-4-[(4-fluorophenyl)sulfonyl]-2,6-dimethylpiperazin-1-yl}(1H-1,2,3-triazol-4-yl)methanone]: the IC50 was determined as 48 nM.

For `CC1(C)CN(C(=O)c2cnn[nH]2)CCN1S(=O)(=O)c1cc(F)ccc1Cl` [Example 136, {4-[(2-chloro-5-fluorophenyl)sulfonyl]-3,3-dimethylpiperazin-1-yl}(1H-1,2,3-triazol-5-yl)methanone], the IC50 was 5 nM.

As to `C[C@@H]1CN(C(=O)c2cnn[nH]2)[C@@H](C)CN1S(=O)(=O)c1cc(F)cc(F)c1` [Example 3, {(2S,5R)-4-[(3,5-difluorophenyl)sulfonyl]-2,5-dimethylpiperazin-1-yl}(1H-1,2,3-triazol-5-yl)methanone], the IC50 was 1 nM.

With `CC1(C)CN(C(=O)c2cnn[nH]2)CCN1S(=O)(=O)c1cccc(F)c1Cl` [Example 137, {4-[(2-chloro-3-fluorophenyl)sulfonyl]-3,3-dimethylpiperazin-1-yl}(1H-1,2,3-triazol-5-yl)methanone], the IC50 came out at 19 nM.

Turning to `C[C@@H]1CN(S(=O)(=O)c2cccc(F)c2)C[C@H](C)N1C(=O)c1c[nH]nn1` [Example 52, {(2R,6S)-4-[(3-fluorophenyl)sulfonyl]-2,6-dimethylpiperazin-1-yl}(1H-1,2,3-triazol-4-yl)methanone], the IC50 worked out at 9 nM.

Consider `CC1(C)CN(C(=O)c2cnn[nH]2)CCN1S(=O)(=O)c1ccc(Br)cc1` [Example 109, {4-[(4-bromophenyl)sulfonyl]-3,3-dimethylpiperazin-1-yl}(1H-1,2,3-triazol-5-yl)methanone], for which the IC50 is 4 nM.

Consider `C[C@@H]1CN(C(=O)c2cnn[nH]2)[C@@H](C)CN1S(=O)(=O)c1cccc(OC(F)(F)F)c1` [Example 85, [(2S,5R)-2,5-dimethyl-4-{[3-(trifluoromethoxy)phenyl]sulfonyl}piperazin-1-yl](1H-1,2,3-triazol-5-yl)methanone], for which the IC50 worked out at 2 nM.

For the molecule `C[C@@H]1CN(C(=O)c2c[nH]nn2)[C@@H](C)CN1S(=O)(=O)c1ccc(Cl)s1` [Example 10, {(2S,5R)-4-[(5-chlorothiophen-2-yl)sulfonyl]-2,5-dimethylpiperazin-1-yl}(1H-1,2,3-triazol-4-yl)methanone], the 50% inhibitory concentration (IC50) came to 3 nM.

As to `C[C@@H]1CN(C(=O)c2cnn[nH]2)[C@@H](C)CN1S(=O)(=O)c1c(F)cccc1F` [Example 79, {(2S,5R)-4-[(2,6-difluorophenyl)sulfonyl]-2,5-dimethylpiperazin-1-yl}(1H-1,2,3-triazol-5-yl)methanone], the IC50 amounted to 2 nM.

Consider `C[C@@H]1CN(S(=O)(=O)c2c(F)cccc2F)C[C@H](C)N1C(=O)c1c[nH]nn1` [Example 53, {(2R,6S)-4-[(2,6-difluorophenyl)sulfonyl]-2,6-dimethylpiperazin-1-yl}(1H-1,2,3-triazol-4-yl)methanone], for which the IC50 amounted to 9 nM.

As to `Cc1cc(C)cc(S(=O)(=O)N2C[C@H](C)N(C(=O)c3cnn[nH]3)C[C@H]2C)c1` [Example 92, {(2S,5R)-4-[(3,5-dimethylphenyl)sulfonyl]-2,5-dimethylpiperazin-1-yl}(1H-1,2,3-triazol-5-yl)methanone], the IC50 was 1 nM.

In the case of `C[C@@H]1CN(C(=O)c2cnn[nH]2)[C@@H](C)CN1S(=O)(=O)c1ccc(C#N)cc1` [Example 15, 4-{[(2R,5S)-2,5-dimethyl-4-(1H-1,2,3-triazol-5-ylcarbonyl)piperazin-1-yl]sulfonyl}benzonitrile], the IC50 is 55 nM.

Regarding `CC1(C)CN(C(=O)c2c[nH]nn2)CCN1S(=O)(=O)c1cc(F)cc(F)c1` [Example 29, {4-[(3,5-difluorophenyl)sulfonyl]-3,3-dimethylpiperazin-1-yl}(1H-1,2,3-triazol-4-yl)methanone], the half-inhibitory concentration (IC50) turned out to be 11 nM.

As for `C[C@@H]1CN(C(=O)c2cnn[nH]2)[C@@H](C)CN1S(=O)(=O)c1cccc2cccnc12` [Example 68, [(2S,5R)-2,5-dimethyl-4-(quinolin-8-ylsulfonyl)piperazin-1-yl](1H-1,2,3-triazol-5-yl)methanone], the IC50 was 7 nM.

`CC1(C)CN(C(=O)c2cnn[nH]2)CCN1S(=O)(=O)c1cccc([N+](=O)[O-])c1` [Example 112, {3,3-dimethyl-4-[(3-nitrophenyl)sulfonyl]piperazin-1-yl}(1H-1,2,3-triazol-5-yl)methanone]: the concentration for half-maximal inhibition (IC50) was 24 nM.

As to `C[C@@H]1CN(C(=O)c2cnn[nH]2)[C@@H](C)CN1S(=O)(=O)c1ccccc1Br` [Example 76, {(2S,5R)-4-[(2-bromophenyl)sulfonyl]-2,5-dimethylpiperazin-1-yl}(1H-1,2,3-triazol-5-yl)methanone], the IC50 was determined as 1 nM.

For `COc1ccccc1S(=O)(=O)N1CCN(C(=O)c2cnn[nH]2)CC1(C)C` [Example 130, {4-[(2-methoxyphenyl)sulfonyl]-3,3-dimethylpiperazin-1-yl}(1H-1,2,3-triazol-5-yl)methanone], the IC50 was 38 nM.

For the molecule `C[C@@H]1CN(C(=O)c2cnn[nH]2)[C@@H](C)CN1S(=O)(=O)c1cc(C(F)(F)F)cc(C(F)(F)F)c1` [Example 90, [(2S,5R)-4-{[3,5-bis(trifluoromethyl)phenyl]sulfonyl}-2,5-dimethylpiperazin-1-yl](1H-1,2,3-triazol-5-yl)methanone], the IC50 was 5 nM.

As for `Cc1cccc(Cl)c1S(=O)(=O)N1CCN(C(=O)c2cnn[nH]2)CC1(C)C` [Example 117, {4-[(2-chloro-6-methylphenyl)sulfonyl]-3,3-dimethylpiperazin-1-yl}(1H-1,2,3-triazol-5-yl)methanone], the IC50 is 4 nM.
